Experimental data published in ChEMBL document CHEMBL1201862, “PubChem BioAssay data set” (2004).
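Exposure lasted 48 hours, with cells grown in 96-well plates and compounds tested at five concentrations. GI50 = concentration required for 50% inhibition of growth.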 The source made the active and inactive calls. Rule as the data show it: active = GI50 up to about 1.1 µM and inactive = higher.

How the values were obtained:
Experiment in all cases: NCI tumour cell line growth inhibition, 48 h
DMS-273 = test system: DMS-273
HOP-18 = test system: HOP-18
KM-20L2 = test system: KM-20L2
RXF 631 = test system: RXF 631
SNB-78 = test system: SNB-78
XF498 = test system: XF498
DMS-114 = test system: DMS-114
BT-549 = test system: BT-549
MCF7 = test system: MCF7

Compound	GI50 (DMS-273)	GI50 (HOP-18)	GI50 (KM-20L2)	GI50 (RXF 631)	GI50 (SNB-78)	GI50 (XF498)	GI50 (DMS-114)	GI50 (BT-549)	GI50 (MCF7)
[C-]#[N+]C(C)(C)C[C@H]1CC(C)C2CCC(C)C3([N+]#[C-])CCC(=C)C1[C@H]23 (some centres not stated)	0.286 µM (active)	0.046 µM (active)	5.36 µM (inactive)	1.86 µM (inactive)	0.249 µM (active)	2.62 µM (inactive)	–	–	–
NNC(=O)N/N=C1\C(=O)N(c2nccs2)C(=O)C(=O)C1c1nc2ccccc2s1 (configuration not stated)	> 100 µM (inactive)	7.19 µM (inactive)	> 100 µM (inactive)	> 100 µM (inactive)	> 100 µM (inactive)	> 100 µM (inactive)	> 100 µM (inactive)	–	–
CC1CCC[P+](Cc2ccccc2)(c2ccccc2)CC1 (configuration not stated)	33.6 µM (inactive)	0.078 µM (active)	50.6 µM (inactive)	> 100 µM (inactive)	48.3 µM (inactive)	21.4 µM (inactive)	18.5 µM (inactive)	–	–
COc1cc2c(c(OC)c1OC)-c1ccc(SC)c(=O)cc1C(CC(=O)Oc1cccc([N+](=O)[O-])c1)C2 (configuration not stated)	0.364 µM (active)	> 100 µM (inactive)	0.585 µM (active)	0.502 µM (active)	0.481 µM (active)	0.74 µM (active)	0.312 µM (active)	–	–
Cc1cc(N(CCC#N)CCC#N)ccc1/C=C1N=C(/C=C\c2ccccc2)N(c2ccc(C(=O)O)cc2)C\1=O	–	> 100 µM (inactive)	> 100 µM (inactive)	> 100 µM (inactive)	> 100 µM (inactive)	–	> 100 µM (inactive)	–	–
O=C(O/C(=C(/N=N/c1ccccc1)c1ccccc1)c1ccccc1)c1ccccc1	–	> 100 µM (inactive)	> 100 µM (inactive)	16.7 µM (inactive)	> 100 µM (inactive)	> 100 µM (inactive)	> 100 µM (inactive)	–	–
CN1CCC(O)C(CNC23CC4CC(CC(C4)C2)C3)C1 (configuration not stated)	> 100 µM (inactive)	–	59 µM (inactive)	> 100 µM (inactive)	> 100 µM (inactive)	> 100 µM (inactive)	> 100 µM (inactive)	–	–
CCC1C2C=CC(CC2)N1S(=O)(=O)c1ccc(C)cc1 (configuration not stated)	18.2 µM (inactive)	–	17.3 µM (inactive)	27.4 µM (inactive)	–	–	20.3 µM (inactive)	–	–
O=S(=O)(Cc1ccccc1)SCc1ccccc1	29.9 µM (inactive)	18.9 µM (inactive)	21.6 µM (inactive)	19.1 µM (inactive)	19.3 µM (inactive)	–	17.5 µM (inactive)	–	–
Cc1ccc(/C=C/C(=O)C(C)(C)CN2CCCCC2)cc1	3.02 µM (inactive)	–	2.86 µM (inactive)	14.5 µM (inactive)	7.29 µM (inactive)	11.7 µM (inactive)	–	–	–
C=C1CC2CC[C@@]34C[C@H]5O[C@@H]6C(O[C@H]7CC[C@H](CC(=O)OC8[C@H](C)C9OC%10C[C@]%11(C[C@@H]%12O[C@]%13(C[C@H](C)[C@@H]%14O[C@H]([C@H](O)C[C@H](O)CO)C[C@@H]%14O%13)C[C@H](C)[C@@H]%12O%11)OC%10CC9O[C@H]8C[C@H]8O[C@H](CC[C@@H]1O2)C[C@@H](C)C8=C)O[C@H]7[C@@H]6O3)[C@@H]5O4 (some centres not stated)	0.000538 µM (active)	< 0.01 µM (active)	0.000395 µM (active)	–	0.00261 µM (active)	0.00123 µM (active)	0.00037 µM (active)	1.31 µM (inactive)	0.000255 µM (active)
CCOCN1COCN(C)C1=O	> 100 µM (inactive)	> 100 µM (inactive)	> 100 µM (inactive)	> 100 µM (inactive)	> 100 µM (inactive)	> 100 µM (inactive)	–	–	–
Cc1c(Cl)cccc1NC(=O)C(=O)C(C(=O)c1ccccc1-c1ccccc1)C1OC(=O)c2ccccc21 (configuration not stated)	24.4 µM (inactive)	–	23.7 µM (inactive)	23.7 µM (inactive)	22.2 µM (inactive)	11.5 µM (inactive)	16 µM (inactive)	–	–
COc1ccc(/C=C/c2cc(OC)c(OC)c(OC)c2)cc1	2.8 µM (inactive)	–	2.34 µM (inactive)	3.73 µM (inactive)	17.8 µM (inactive)	0.592 µM (active)	27 µM (inactive)	–	–
O=C(N/C(=C\c1cc(Cl)ccc1Cl)c1nc2ccccc2[nH]1)c1ccccc1	–	–	34 µM (inactive)	22.3 µM (inactive)	45.4 µM (inactive)	26.9 µM (inactive)	35.3 µM (inactive)	–	–
CCN(CC)c1ccc2c(c1)Oc1ccc(N(CC)CC)cc1C21Oc2ccccc2-c2c1c1ccccc1n2CC (configuration not stated)	3.4 µM (inactive)	0.614 µM (active)	0.875 µM (active)	6.1 µM (inactive)	7.36 µM (inactive)	1.06 µM (active)	0.506 µM (active)	–	–
CCN(CC)/[N+]([O-])=N/OCC(C)O (configuration not stated)	> 100 µM (inactive)	–	–	> 100 µM (inactive)	> 100 µM (inactive)	> 100 µM (inactive)	> 100 µM (inactive)	–	–
